In US11685729B2, “C5a receptor modulators” (IDORSIA PHARMACEUTICALS LTD., priority 2018, dated 2023):
pIC50: −log10 of the molar value. Like-named read-outs stand apart in the source and are kept apart here.

Molecular target: C5AR1 (Homo sapiens (Human), UniProt P21730)
Assay: In vitro assay: PathHunter beta-arrestin antagonist assay in CHO-K1 C5AR1 beta-arrestin cell line, stimulated with C5a agonist
[1] = read-out: C5aR IC50, CHO-K1 C5AR1 beta-arrestin cell line, 1-10 nM C5a agonist, geometric mean values

Chain of C5AR1 (P21730 whole entry): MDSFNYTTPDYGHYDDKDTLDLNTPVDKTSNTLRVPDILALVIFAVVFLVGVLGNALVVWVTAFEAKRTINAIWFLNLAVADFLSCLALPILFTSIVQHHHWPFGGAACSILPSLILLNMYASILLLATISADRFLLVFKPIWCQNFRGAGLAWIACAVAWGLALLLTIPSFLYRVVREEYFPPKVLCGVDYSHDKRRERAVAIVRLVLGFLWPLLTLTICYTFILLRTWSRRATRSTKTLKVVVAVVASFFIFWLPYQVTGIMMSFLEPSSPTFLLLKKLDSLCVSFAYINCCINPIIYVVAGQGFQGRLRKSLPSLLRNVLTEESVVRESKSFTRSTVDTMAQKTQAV
Method: 5 μl Antagonist at 6-fold end concentration or DMSO control is added to assay medium and subsequently 5 μl 1-10 nM C5a agonist at 6 fold end concentration. Cells are centrifuged for 1 min at 1000 rpm and incubated for 1.5 hour in at 37° C. Plates are equilibrated at room temperature for several minutes before adding 12 μI/well Detection Reagent (PathHunter Detection Kit, DiscoverX, Cat #93-0001). Plates are centrifuged for 1 min at 1000 rpm and incubated for 45 minutes at RT before being measured on a Fluostar Optima, BMG Labtech. IC50 values are calculated from a serial dilution range of antagonist using inhouse software and given in nmol/l.
The calculated IC50 values may fluctuate depending on the daily cellular assay performance. […] Average IC50 values from several measurements are given as geometric mean values.

SMILES | pIC50 [1] | pIC50
Cc1cccc(F)c1N1CCC(N2C(=O)N(Cc3ccccc3C(F)(F)F)c3ccccc3C2C)CC1 (racemic) [Example 70, 3-[1-(2-Fluoro-6-methyl-phenyl)-piperidin-4-yl]-4-methyl-1-(2-trifluoromethyl-benzyl)-3,4-dihydro-1H-quinazolin-2-one] | 6.69 | –
Cc1cccc(F)c1N1CCC(N2C(=O)N(Cc3ccccc3C(F)(F)F)c3ccccc3C2C)CC1 (single isomer, unassigned) [Example 71, (S)- or (R)-3-[1-(2-Fluoro-6-methyl-phenyl)-piperidin-4-yl]-4-methyl-1-(2-trifluoromethyl-benzyl)-3,4-dihydro-1H-quinazolin-2-one] | – | 7.23
COc1ccccc1N1CCC(N2Cc3cccc(OC)c3N(Cc3ccccc3C(F)(F)F)C2=O)CC1 [Example 4, 8-Methoxy-3-[1-(2-methoxy-phenyl)-piperidin-4-yl]-1-(2-trifluoromethyl-benzyl)-3,4-dihydro-1H-quinazolin-2-one] | 6.03 | –
COc1cccc(F)c1N1CCC(N2Cc3cccc(OC)c3N(Cc3ccccc3C(F)(F)F)C2=O)CC1 [Example 5, 3-[1-(2-Fluoro-6-methoxy-phenyl)-piperidin-4-yl]-8-methoxy-1-(2-trifluoromethyl-benzyl)-3,4-dihydro-1H-quinazolin-2-one] | 6.52 | –
COc1ccccc1N1CCC(N2Cc3ccccc3N(Cc3ccccc3C(F)(F)F)C2=O)CC1 [Example 6, 3-[1-(2-Methoxy-phenyl)-piperidin-4-yl]-1-(2-trifluoromethyl-benzyl)-3,4-dihydro-1H-quinazolin-2-one] | 6.61 | –
COc1cccc(F)c1N1CCC(N2Cc3ccccc3N(Cc3ccccc3C(F)(F)F)C2=O)CC1 [Example 7, 3-[1-(2-Fluoro-6-methoxy-phenyl)-piperidin-4-yl]-1-(2-trifluoromethyl-benzyl)-3,4-dihydro-1H-quinazolin-2-one] | 7.24 | –
COc1cccc2c1N(Cc1ccccc1C(F)(F)F)C(=O)N([C@@H]1CCN(c3c(F)cccc3F)C1)C2 [Example 8, 3-[(R)-1-(2,6-Difluoro-phenyl)-pyrrolidin-3-yl]-8-methoxy-1-(2-trifluoromethyl-benzyl)-3,4-dihydro-1H-quinazolin-2-one] | 6.98 | –
COc1cccc2c1N(Cc1ccccc1C(F)(F)F)C(=O)N([C@@H]1CCN(c3c(C)cccc3C)C1)C2 [Example 9, 3-[(R)-1-(2,6-Dimethyl-phenyl)-pyrrolidin-3-yl]-8-methoxy-1-(2-trifluoromethyl-benzyl)-3,4-dihydro-1H-quinazolin-2-one] | 7.60 | –
COc1ccccc1N1CC[C@@H](N2Cc3cccc(OC)c3N(Cc3ccccc3C(F)(F)F)C2=O)C1 [Example 10, 8-Methoxy-3-[(R)-1-(2-methoxy-phenyl)-pyrrolidin-3-yl]-1-(2-trifluoromethyl-benzyl)-3,4-dihydro-1H-quinazolin-2-one] | 5.73 | –
COc1cccc(F)c1N1CC[C@@H](N2Cc3cccc(OC)c3N(Cc3ccccc3C(F)(F)F)C2=O)C1 [Example 11, 3-[(R)-1-(2-Fluoro-6-methoxy-phenyl)-pyrrolidin-3-yl]-8-methoxy-1-(2-trifluoromethyl-benzyl)-3,4-dihydro-1H-quinazolin-2-one] | 6.66 | –
Cn1nc(C2CC2)c(Cl)c1N1CCC(N2Cc3ccccc3N(Cc3ccccc3C(F)(F)F)C2=O)CC1 [Example 12, 3-[1-(4-Chloro-5-cyclopropyl-2-methyl-2H-pyrazol-3-yl)-piperidin-4-yl]-1-(2-trifluoromethyl-benzyl)-3,4-dihydro-1H-quinazolin-2-one] | 6.17 | –
Cc1cccc(C)c1N1CC[C@H](N2Cc3ccccc3N(Cc3ccccc3C(F)(F)F)C2=O)C1 [Example 14, 3-[(S)-1-(2,6-Dimethyl-phenyl)-pyrrolidin-3-yl]-1-(2-trifluoromethyl-benzyl)-3,4-dihydro-1H-quinazolin-2-one] | 6.20 | –
O=C1N(Cc2ccccc2C(F)(F)F)c2ccccc2CN1[C@H]1CCN(c2c(F)cccc2F)C1 [Example 15, 3-[(S)-1-(2,6-Difluoro-phenyl)-pyrrolidin-3-yl]-1-(2-trifluoromethyl-benzyl)-3,4-dihydro-1H-quinazolin-2-one] | 6.07 | –
COc1ccccc1N1CC[C@H](N2Cc3ccccc3N(Cc3ccccc3C(F)(F)F)C2=O)C1 [Example 16, 3-[(S)-1-(2-Methoxy-phenyl)-pyrrolidin-3-yl]-1-(2-trifluoromethyl-benzyl)-3,4-dihydro-1H-quinazolin-2-one] | 6.20 | –
COc1cccc(F)c1N1CC[C@H](N2Cc3ccccc3N(Cc3ccccc3C(F)(F)F)C2=O)C1 [Example 17, 3-[(S)-1-(2-Fluoro-6-methoxy-phenyl)-pyrrolidin-3-yl]-1-(2-trifluoromethyl-benzyl)-3,4-dihydro-1H-quinazolin-2-one] | 6.36 | –
Cc1cccc(C)c1N1CC[C@@H](N2Cc3ccccc3N(Cc3ccccc3C(F)(F)F)C2=O)C1 [Example 18, 3-[(R)-1-(2,6-Dimethyl-phenyl)-pyrrolidin-3-yl]-1-(2-trifluoromethyl-benzyl)-3,4-dihydro-1H-quinazolin-2-one] | 7.55 | –

SMILES | pIC50 [1] | pIC50
O=C1N(Cc2ccccc2C(F)(F)F)c2ccccc2CN1[C@@H]1CCN(c2c(F)cccc2F)C1 [Example 19, 3-[(R)-1-(2,6-Difluoro-phenyl)-pyrrolidin-3-yl]-1-(2-trifluoromethyl-benzyl)-3,4-dihydro-1H-quinazolin-2-one] | 7.28 | –
COc1ccccc1N1CC[C@@H](N2Cc3ccccc3N(Cc3ccccc3C(F)(F)F)C2=O)C1 [Example 20, 3-[(R)-1-(2-Methoxy-phenyl)-pyrrolidin-3-yl]-1-(2-trifluoromethyl-benzyl)-3,4-dihydro-1H-quinazolin-2-one] | 6.74 | –
COc1cccc(F)c1N1CC[C@@H](N2Cc3ccccc3N(Cc3ccccc3C(F)(F)F)C2=O)C1 [Example 21, 3-[(R)-1-(2-Fluoro-6-methoxy-phenyl)-pyrrolidin-3-yl]-1-(2-trifluoromethyl-benzyl)-3,4-dihydro-1H-quinazolin-2-one] | 7.43 | –
COc1cccc(C)c1N1CC[C@@H](N2Cc3cccc(OC)c3N(Cc3ccccc3C(F)(F)F)C2=O)C1 [Example 22, 8-Methoxy-3-[(R)-1-(2-methoxy-6-methyl-phenyl)-pyrrolidin-3-yl]-1-(2-trifluoromethyl-benzyl)-3,4-dihydro-1H-quinazolin-2-one] | 7.28 | –
COc1cccc(C)c1N1CCC(N2Cc3ccccc3N(Cc3ccccc3C(F)(F)F)C2=O)CC1 [Example 23, 3-[1-(2-Methoxy-6-methyl-phenyl)-piperidin-4-yl]-1-(2-trifluoromethyl-benzyl)-3,4-dihydro-1H-quinazolin-2-one] | 7.49 | –
COc1cccc(OC)c1N1CC[C@@H](N2Cc3cccc(OC)c3N(Cc3ccccc3C(F)(F)F)C2=O)C1 [Example 24, 3-[(R)-1-(2,6-Dimethoxy-phenyl)-pyrrolidin-3-yl]-8-methoxy-1-(2-trifluoromethyl-benzyl)-3,4-dihydro-1H-quinazolin-2-one] | 6.42 | –
COc1cccc(C)c1N1CCC(N2Cc3cccc(OC)c3N(Cc3ccccc3C(F)(F)F)C2=O)CC1 [Example 25, 8-Methoxy-3-[1-(2-methoxy-6-methyl-phenyl)-piperidin-4-yl]-1-(2-trifluoromethyl-benzyl)-3,4-dihydro-1H-quinazolin-2-one] | 6.30 | –
Cc1cccc(F)c1N1CC[C@@H](N2Cc3ccccc3N(Cc3ccccc3C(F)(F)F)C2=O)C1 [Example 26, 3-[(R)-1-(2-Fluoro-6-methyl-phenyl)-pyrrolidin-3-yl]-1-(2-trifluoromethyl-benzyl)-3,4-dihydro-1H-quinazolin-2-one] | 7.46 | –
COc1cccc(C)c1N1CC[C@@H](N2Cc3ccccc3N(Cc3ccccc3C(F)(F)F)C2=O)C1 [Example 27, 3-[(R)-1-(2-Methoxy-6-methyl-phenyl)-pyrrolidin-3-yl]-1-(2-trifluoromethyl-benzyl)-3,4-dihydro-1H-quinazolin-2-one] | 7.43 | –
Cc1ccnc(C)c1N1CCC(N2Cc3ccccc3N(Cc3ccccc3C(F)(F)F)C2=O)CC1 [Example 28, 3-(2′,4′-Dimethyl-3,4,5,6-tetrahydro-2H-[1,3′]bipyridinyl-4-yl)-1-(2-trifluoromethyl-benzyl)-3,4-dihydro-1H-quinazolin-2-one] | 6.54 | –
COc1nccc(C)c1N1CCC(N2Cc3ccccc3N(Cc3ccccc3C(F)(F)F)C2=O)CC1 [Example 29, 3-(2′-Methoxy-4′-methyl-3,4,5,6-tetrahydro-2H-[1,3′]bipyridinyl-4-yl)-1-(2-trifluoromethyl-benzyl)-3,4-dihydro-1H-quinazolin-2-one] | 7.46 | –
Cc1ccnc(F)c1N1CCC(N2Cc3ccccc3N(Cc3ccccc3C(F)(F)F)C2=O)CC1 [Example 30, 3-(2′-Fluoro-4′-methyl-3,4,5,6-tetrahydro-2H-[1,3′]bipyridinyl-4-yl)-1-(2-trifluoromethyl-benzyl)-3,4-dihydro-1H-quinazolin-2-one] | 7.35 | –
COc1nccc(C)c1N1CC[C@@H](N2Cc3ccccc3N(Cc3ccccc3C(F)(F)F)C2=O)C1 [Example 31, 3-[(R)-1-(2-Methoxy-4-methyl-pyridin-3-yl)-pyrrolidin-3-yl]-1-(2-trifluoromethyl-benzyl)-3,4-dihydro-1H-quinazolin-2-one] | 7.43 | –
Cc1ccnc(C)c1N1CC[C@@H](N2Cc3ccccc3N(Cc3ccccc3C(F)(F)F)C2=O)C1 [Example 32, 3-[(R)-1-(2,4-Dimethyl-pyridin-3-yl)-pyrrolidin-3-yl]-1-(2-trifluoromethyl-benzyl)-3,4-dihydro-1H-quinazolin-2-one] | 6.55 | –
Cc1ccnc(F)c1N1CC[C@@H](N2Cc3ccccc3N(Cc3ccccc3C(F)(F)F)C2=O)C1 [Example 33, 3-[(R)-1-(2-Fluoro-4-methyl-pyridin-3-yl)-pyrrolidin-3-yl]-1-(2-trifluoromethyl-benzyl)-3,4-dihydro-1H-quinazolin-2-one] | 7.37 | –
COc1ccccc1CN1C(=O)N([C@@H]2CCN(c3c(C)cccc3C)C2)Cc2ccccc21 [Example 34, 3-[(R)-1-(2,6-Dimethyl-phenyl)-pyrrolidin-3-yl]-1-(2-methoxy-benzyl)-3,4-dihydro-1H-quinazolin-2-one] | 6.94 | –
